The test relates to 217524-143-R1-J4-PDC spheroids with HUVEC/MSC, viability. Kind of test: Anticancer human tumor 217524-143-R1-J4-PDC patient-derived pancreatic carcinoma cell line growth inhibition [CLK]. The following applies: for viability, T/C: stronger effect = lower value. From the text: A high-throughput screen of multi-cell type tumor spheroids was designed to identify active combinations of […] and targeted small molecules. Complex spheroids include a stromal component modeled by human endothelial cells (HUVEC) and fibroblasts modeled by human mesenchymal stem cells (MSCs). The concentration ranges selected for each drug and investigational agent were based upon clinically achievable concentrations if the clinical Cmax of the agent was known.
Compounds. The drugs and investigational agents: cirtuvivint (SM08502; NSC835563), CC-671 (NSC850746), vemurafenib (NSC761431), tapotoclax (NSC804041), sotorasib (NSC818433), adagrasib (NSC831453), MRTX-1133 (NSC836407), BAY2416964 (NSC825713), copanlisib (NSC816437), inavolisib (NSC800729), abemaciclib (NSC768073), osimertinib (NSC779217), entinostat (NSC756642), eltanexor (KPT-8602, NSC794443), venetoclax (NSC766270), ceralasertib (NSC777638), bortezomib (NSC756655), olaparib (NSC753686), talazoparib (NSC767125), alisertib (NSC759677), peposertib (NSC802822), gemcitabine (NSC613327), 5-fluorouracil (NSC19893), SN-38 (NSC673596), oxaliplatin (NSC266046), paclitaxel (NSC125973), and doxorubicin (NSC123127), were obtained from the National Cancer Institute (NCI) Developmental Therapeutics Program Chemical Repository. The FDA-approved anticancer drug set is available from the Developmental Therapeutics Program at https://dtp.cancer.gov/organization/dscb/obtaining/available plates.htm. […] The stock solutions were prepared in dimethyl sulfoxide (DMSO, Sigma-Aldrich, St. Louis, MO, cat. D2650), except for the platinum complexes which were prepared in saline (Quality Biological, Gaithersburg, MD, cat. 114-055-101), at 800-fold the tested concentration and stored at -70 degrees C prior to their use. All drugs and investigational agents were tested over a range starting from a high concentration at or near the clinical Cmax and decreasing in half-log increments. If the clinical Cmax for an agent had not been determined, the highest concentration tested was 10 microM.
Cell Culture. All cells were maintained in an incubator at 37 degrees C and 5% CO2 with 95% humidity. The PDC lines were cultured according to standard operating procedures established by the NCI PDMR. Briefly, all PDCs were thawed and cultured in Matrigel-coated flasks prepared with a working solution of 1X Ham's F-12 nutrient mix, without supplementation (Invitrogen, Waltham, MA, cat. 11765054), 100 U/mL penicillin-streptomycin (Invitrogen, cat. 15140122), and 2.5% Matrigel (Corning Inc., Corning, NY, cat. 354248) for the first three passages. The 947758-054-R-J2-PDC line was cultured in 6B/Colon 1A media, which includes advanced DMEM/F-12 (Thermo Fisher Scientific, cat. 12634028), 10 mM HEPES (Thermo Fisher Scientific, cat. 15630080), 1X GlutaMAX supplement (Thermo Fisher Scientific, cat. 35050061), 0.1 mg/mL primocin (InvivoGen, cat. ant-pm-2), 10% defined fetal bovine serum, heat inactivated (HyClone Laboratories Inc., cat. SH30070.03HI), 1.25 mM N-Acetyl-L-cysteine (Sigma-Aldrich, cat. A9165), 10 mM nicotinamide (Sigma-Aldrich, cat. N0636), 1X B-27 supplement (Thermo Fisher Scientific, cat. 17504044), 1X N-2 supplement (Thermo Fisher Scientific, cat. 17502048), and 10 microM Y-27632 dihydrochloride (Tocris Bioscience, cat. 1254). The 876862-298-R-J1-PDC was cultured in 6E media, which includes all 6B/Colon 1A media components plus 50% L-WRN conditioned media (ATCC, cat. CRL-3276), 50 ng/mL recombinant human EGF recombinant protein (hEGF; Thermo Fisher Scientific, cat. PHG0311), 10 ng/mL recombinant human fibroblast growth factor 10 (hGFG-10; PeproTech, cat. 100-26), 1 ng/mL recombinant human fibroblast growth factor 2 (hFGF-2; PeproTech, cat. 100-18B), and 1 µM prostaglandin E2 (PGE2; Tocris, cat. 2296). The 227483-062-R1-J1-PDC line was cultured in Panc media, containing all 6E components except hFGF-2, with the addition of 500 nM SB-431542 (Selleckchem, cat. S1067) and 10 nM gastrin (Tocris, cat. 3006). […]

Structures are written as SMILES. Where “and” joins values, the source holds several entries; their conditions need not be identical. Equal entries are not always repeated.

In general, viability, T/C refers to the result in the treated group divided by that in the control group, in per cent. As a reminder, the IC50 is the midpoint of a concentration-inhibition curve.
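Further: spheroids exposed to agents for seven days before reading.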

In the case of `CCN1CCN(Cc2ccc(Nc3ncc(F)c(-c4cc(F)c5nc(C)n(C(C)C)c5c4)n3)nc2)CC1`, the viability, T/C (compound 0.00316 µM) is 104% and 92.1%; the viability, T/C (compound 0.01 µM) was 74.8% and 70.1%; the viability, T/C (compound 0.0316 µM) is 90.5% and 66.1%; the viability, T/C (compound 0.1 µM) is 61.9% and 40.7%; the viability, T/C (compound 0.316 µM) was 40.3% and 33.4%; the viability, T/C (compound 1 µM) was 44% and 39.1%. For the setting “curve of compound”, the IC50 is 200 nM and 64 nM.
Take `CCc1c2c(nc3ccc(O)cc13)-c1cc3c(c(=O)n1C2)COC(=O)[C@]3(O)CC`: the viability, T/C was 51.5% and 55.3% (compound 0.00316 µM); 42% and 40.3% (compound 0.01 µM); 33.3% and 33.9% (compound 0.0316 µM); 26.8% and 28.3% (compound 0.1 µM); 20.4% and 16.5% (compound 0.316 µM); 5.13% and 2.88% (compound 1 µM). In addition, under “curve of compound”, the IC50 is 3.31 nM and 4.7 nM.
As to `CNC(=O)c1ccc(Nc2nc(OC3CCCC3)c3c(-c4ccc5nc(C)oc5c4)c[nH]c3n2)c(OC)c1`, the viability, T/C (compound 0.0316 µM) was 91.6% [middle of 12 runs]; the viability, T/C (compound 0.1 µM) was 46.5% [middle of 12 runs]; the viability, T/C (compound 0.316 µM) was 37.7% [middle of 12 runs]; the viability, T/C (compound 1 µM) was 31.2% [middle of 12 runs]; the viability, T/C (compound 3.16 µM) was 27.4% [middle of 12 runs]; the viability, T/C (compound 10 µM) was 27.3% [middle of 12 runs]. The IC50 (compound alone, run of 08/01/2023) is 96.4 nM [middle of 12 runs].
As to `COC1C=CCC(C)C(C)S(=O)(=O)NC(=O)c2ccc3c(c2)N(CC2CCC21)CC1(CCCc2cc(Cl)ccc21)CO3` (stereo unspecified), the viability, T/C (compound 0.0316 µM) is 93.3% and 85.4%; the viability, T/C (compound 0.1 µM) is 112% and 93.6%; the viability, T/C (compound 0.316 µM) was 112%; the viability, T/C (compound 1 µM) was 123% and 108%; the viability, T/C (compound 3.16 µM) was 125% and 110%; the viability, T/C (compound 10 µM) was 26.2% and 28.4%. The IC50 (curve of compound) is 7310 nM and 7140 nM.
As for `COc1c(OCCCN2CCOCC2)ccc2c3n(c(=NC(=O)c4cnc(N)nc4)nc12)CCN3`, the viability, T/C is 74.2% and 71.6% (compound 0.00316 µM); 39.2% and 27.7% (compound 0.01 µM); 16.1% and 11.7% (compound 0.0316 µM); 5% and 4.43% (compound 0.1 µM); 2.63% and 3% (compound 0.316 µM); 2.47% and 2.32% (compound 1 µM). Besides, for the setting “curve of compound”, the concentration for half-maximal inhibition (IC50) was 7.04 nM and 5.59 nM.
For `Cn1ncnc1[C@H]1c2n[nH]c(=O)c3cc(F)cc(c23)N[C@@H]1c1ccc(F)cc1`, the viability, T/C (compound 0.000316 µM) is 101% and 96.4%; the viability, T/C (compound 0.001 µM) is 93.3% and 90.1%; the viability, T/C (compound 0.00316 µM) is 103% and 102%; the viability, T/C (compound 0.01 µM) is 85.5% and 93.6%; the viability, T/C (compound 0.0316 µM) is 113% and 106%; the viability, T/C (compound 0.1 µM) is 102% and 83.5%. Besides, under “curve of compound”, the IC50 is greater than 100 nM.
`NC(=O)C(=Cn1cnc(-c2cc(C(F)(F)F)cc(C(F)(F)F)c2)n1)c1cncnc1`: the viability, T/C runs as follows: (compound 0.00949 µM) 73.8% and 67.8%; (compound 0.03 µM) 49.3% and 36.5%; (compound 0.0949 µM) 27.8% and 21.1%; (compound 0.3 µM) 21.7% and 27.9%; (compound 0.949 µM) 25.6% and 28.4%; (compound 3 µM) 23.2% and 20.4%. Also, under “curve of compound”, the IC50 is 29 nM and 18.2 nM.
For the compound `Nc1ccccc1NC(=O)c1ccc(CNC(=O)OCc2cccnc2)cc1`, the viability, T/C by setting is: (compound 0.0316 µM) 112% and 117%; (compound 0.1 µM) 102% and 93.9%; (compound 0.316 µM) 97.4% and 104%; (compound 1 µM) 89.9% and 98.1%; (compound 3.16 µM) 61.6% and 70.6%; (compound 10 µM) 31.1% and 34.7%. Besides, the half-maximal inhibitory concentration (IC50) (curve of compound) was 5090 nM and 6150 nM.
